Data taken from patent US5744444A, “HPTH-fragment-(1-37), the preparation thereof, medicaments containing same and the use thereof” (HaemoPep Pharma GmbH, priority 1989, dated 1998).

What was measured:
[1] = secondary structure by UV circular dichroism; format: physicochemical; conditions: 50 μg/ml, 10 mM Tris-HCl buffer pH 7.5, room temperature, 190-240 nm; calculated by the method of Reed and Kinzel
Procedure: The circular dichroism was measured by means of a Jasco J-500 Automatic Recording Spectropolarimeter coupled with a Jasco DP-500 Data Processor. For the determination of the secondary structure, the measurement was carried out in the spectral range of from 190 nm to 240 nm at room temperature in a selected quartz cuvette at a light path of 1 mm. The parathormone concentrations employed were 50 μg/ml of hPTH-(1-33), 50 μg/ml of hPTH-(1-37) and 50 μg/ml of hPTH-(1-38). 10 mM Tris-HCl buffer pH 7.5 was used for dissolution (other conditions of the measurement: Sensitivity 2 milli-degrees/cm; time constant 2 seconds; recorder speed: 4 nm/min; wave length expansion: 5 nm/cm). The curves in FIG. 13 for hPTH-(1-33) hPTH-(1-37) and hPTH-(1-38) are average values for the signals from 4 subsequent measurements minus the base line values.
The evaluation for determining the secondary structure was performed in accordance with the method described by Reed and Kinzel (Biochemistry 23, 1357-1362, 1984).

hPTH-(53-84)-RIA = conditions: synthetic hPTH peptides; data provided by the producer (Immundiagnostik); cited from earlier work
hPTH-(44-68)-RIA = conditions: synthetic hPTH peptides; data provided by the producer (Immundiagnostik); cited from earlier work

| Molecule | α-helix proportion of the secondary structure [1] | cross-reaction in the hPTH-(53-84)-RIA (hPTH-(53-84)-RIA) | cross-reaction in the hPTH-(44-68)-RIA (hPTH-(44-68)-RIA) |
| --- | --- | --- | --- |
| hPTH-(1-33): synthetic N-terminal human PTH fragment, comparison peptide (SVSEIQLMHNLGKHLNSMERVEWLRKKLQDVHN; Parathyroid hormone; UniProt P01270 32-64, looked up, fragment) | similarly low as in hPTH-(1-38) |  |  |
| hPTH-(1-34): known synthetic amino-terminal partial sequence of human PTH (SVSEIQLMHNLGKHLNSMERVEWLRKKLQDVHNF; Parathyroid hormone; UniProt P01270 32-65, looked up, fragment) |  | do not show any cross-reaction | do not show any cross-reaction |
| hPTH-(1-38): known synthetic amino-terminal partial sequence of human PTH, comparison peptide (SVSEIQLMHNLGKHLNSMERVEWLRKKLQDVHNFVALG; Parathyroid hormone; UniProt P01270 32-69, looked up, fragment) | about 27% |  |  |
| hPTH-(28-48): synthetic hPTH peptide tested for cross-reaction in the RIAs (LQDVHNFVALGAPLAPRDAGS; Parathyroid hormone; UniProt P01270 59-79, looked up, fragment) |  | do not show any cross-reaction | do not show any cross-reaction |
| hPTH-(44-68): synthetic hPTH peptide, standard of the medium-regional RIA (RDAGSQRPRKKEDNVLVESHEKSLG; Parathyroid hormone; UniProt P01270 75-99, looked up, fragment) |  | do not show any cross-reaction |  |
| hPTH-(53-84): synthetic hPTH peptide, standard of the C-terminal RIA (KKEDNVLVESHEKSLGEADKADVNVLTKAKSQ; Parathyroid hormone; UniProt P01270 84-115, looked up, fragment) |  |  | 100% |
| hPTH-(64-84): synthetic hPTH peptide tested for cross-reaction in the RIAs (EKSLGEADKADVNVLTKAKSQ; Parathyroid hormone; UniProt P01270 95-115, looked up, fragment) |  | 100% | do not show any cross-reaction |
| hPTH-(1-84): the secreted PTH molecule consisting of 84 amino acids (peptide, UniProt P01270 32-115, looked up, Parathyroid hormone, the secreted PTH molecule consisting of 84 amino acids) Parathyroid hormone: SVSEIQLMHNLGKHLNSMERVEWLRKKLQDVHNFVALGAPLAPRDAGSQRPRKKEDNVLVESHEKSLGEADKADVNVLTKAKSQ |  | 100% | 100% |
